Laboratory results taken from US20170205396A1, “SYSTEMS AND METHODS FOR CULTURING NEPHRON PROGENITOR CELLS” (Salk Institute for Biological Studies, priority 2016, published 2017).

Legend:
[1] = test system: Six2-GFP+ NPCs; test: NPSR-based 3D aggregate culture of primary NPCs (srNPC derivation, long-term expansion, component withdrawal); type: cell-based, mouse; settings: each of six components subtracted, period as short as 4 days
From the text: NPCs in mouse first appear around embryonic day 11.5 (E11.5) and mark the onset of nephrogenesis. In mice, NPCs exhaust shortly after birth, around postnatal day 3 (P3), after their last wave of differentiation into nephrons. Lineage tracing experiments have established SIX2 as a specific NPC marker. Available mouse strain with GFP cassette knocked in the Six2 locus (Six2^GCE) facilitates purification of Six2-GFP+ population from embryonic or neonatal mouse kidneys by fluorescence activated cell sorting (FACS). To screen for conditions conducive to in vitro expansion of NPCs Six2-GFP+ cells were isolated from E13.5 embryonic kidneys of Six2^GCE mice. Considering that in vivo NPCs are tightly packed together, it was hypothesized that the cell-cell contact might play a role in their survival and proliferation. Thus, to better preserve the native microenvironment, sorted Six2-GFP+ NPCs were transferred into U-bottom low-attachment 96-well plates to form 3D aggregates. In base medium supplemented with serum alone NPC aggregates could form.
The optimal condition supportive of NPC self-renewal in vitro was determined by screening growth factors and chemical inhibitors for known signaling pathways implicated in regulating NPC survival, self-renewal, and differentiation in vivo as well as other signaling pathways that were not previously reported. Cell viability, growth rate, and GFP signal were considered among other criteria. Through successive testing a novel culture condition was established containing a cocktail of BMP7, FGF2, Heparin, Y27632, LIF, and CHIR99021 that promotes long-term in vitro expansion of Six2-GFP+ NPCs with high purity (it was named NPC self-renewal medium, or NPSR medium) (FIG. 1A). Of note is that isolated Six2+ NPCs have been propagated in this culture for more than one year and more than 70 passages. The established NPC lines were designated as self-renewable NPCs (srNPCs) due to their unlimited proliferative potential. srNPCs grow fast under this culture condition. Starting with 3,000 cells, after 5 days, the aggregate can grow to around 1 mm in diameter containing around 100,000 cells (FIG. 1B and FIG. 1C). srNPC aggregates maintain stable growth rate after long term passages with 6 to 7 doublings per passage (FIG. 1D). […] Moreover, similar results were obtained when SIX2 and other NPC marker gene expressions were quantified by immunostaining: SIX2+ (˜96.2%), SALL1+ (˜99.1%), CITED1+ (˜96.1%) (FIG. 1E). […] To this end each of the six components were subtracted from NPSR medium and evaluated the effects on srNPCs.
It was determined whether NPSR culture could also support the derivation of srNPCs from other developmental stages harboring Six2+ populations. […]

[2] = test system: nephron organoids; test: Mouse nephron organoid generation and chemical treatment; type: cell-based
From the text: Given kidney's primary function in plasma filtration and metabolic homeostasis, drug-induced nephrotoxicity is common and constitutes a major consideration during the development of new therapeutic drugs. Currently, drug toxicity screening is largely performed using monolayer cultured immortalized kidney cells. Cells in monolayer culture, however, lack an intact 3D nephron structure and are thus limited for accurate prediction of a drug's effect on kidney function. Another layer of complexity during drug screening using immortalized cell lines relates to genetic abnormalities. […] A screen was done to determine conditions that allow efficient organoid generation from srNPCs. […] Committed srNPCs were designated as fate-specified NPCs or FS-NPCs. FS-NPCs could further differentiate autonomously and form nephron organoids marked by numerous tubular formations (FIG. 3B). Whole-mount staining of obtained nephron organoids identified numerous PODXL+/WT1+ glomeruli, LTL+ proximal tubules and CDH1+ distal tubules. The transition from srNPCs via FS-NPCs to nephron organoids was rapid (as short as 7 days), highly efficient and composed of all major nephron segments representing the glomeruli and proximal and distal tubules.
In vivo, NPCs first differentiate to pretubular aggregates (PTA) and renal vesicles (RV) before further maturation to form the segmented renal tubules. To determine which stage FS-NPCs likely correspond to, the expression of common PTA and RV markers was checked. […] Immunofluorescence studies confirmed protein expression of both PTA/RV markers (LHX1 and PAX8) and NPC markers (SIX2 and SALL1) in FS-NPCs.
The utility of srNPC-derived organoids for renal toxicity testing was determined. […]
CD2AP is an important interacting protein for NEPHRIN and PODOCIN and is necessary for proper glomerulus functions and mutations in CD2AP are associated with sporadic nephrotic syndrome and focal segmental glomerulosclerosis (FSGS). […] Consistent with the hypothesis, Cd2ap was expressed in wild type (#2) while barely detected in gene-disrupted (#1 and #3) organoids (FIG. 3E). […]

| Compound | effect of removal of the component from NPSR medium on srNPCs [1] | also measured |
| --- | --- | --- |
| C[C@@H](N)[C@H]1CC[C@H](C(=O)Nc2ccncc2)CC1 [Y27632] | slower cell growth | – |
| lipopolysaccharide [LPS] | – | glomerulus injury in nephron organoids (morphology, active Caspase 3) ([2]; 20 μg/ml, two-day exposure, day 7 organoids): specific damages in the glomerulus; apoptotic cells (active Caspase 3) in Cd2ap-deficient versus wild type organoids ([2]; low dosage 10 μg/ml, two days, tetO srNPC lines): accumulated more apoptotic cells than the wild type |
| C[C@H](NC(=O)Cc1cc(F)cc(F)c1)C(=O)N[C@H](C(=O)OC(C)(C)C)c1ccccc1 [DAPT] | – | effect on proximal tubule and glomerulus differentiation ([2]; 5 μM, day 2 to day? (FS-NPCs to nephron organoids)): both proximal tubules and glomerulus differentiation were inhibited |
| LIF: leukemia inhibitory factor protein, an interleukin 6 class cytokine | loss of GFP signal | – |
| Heparin | slower cell growth | – |
| FGF2: fibroblast growth factor, NPSR medium component | slower cell growth | – |
